Source: a melting point compilation (Tetko et al.; mined from patent text by program, amines drawn as free bases though some values may be those of a salt)

melting point [°C] | Structure (SMILES)
74 to 74.5 | C=Cn1c2ccccc2c2cc(Br)ccc21
173 to 174 | CCN1C=C(C(=O)O)C(=O)CC1c1ccc(OC)cc1 (stereo not drawn)
182 to 184 | Cc1ccc(F)c(-c2cc(Nc3ccnc4cn(CC(O)CO)nc34)ccn2)n1 (stereo not drawn)
118 to 119 | CCCn1nc(OCc2ccc3ccccc3n2)cc1COc1c(CC)cccc1CC(=O)O
167 to 168 | Cc1c(NC(=O)c2ccc(-c3ccc(F)cc3)cc2)ccc2cc(CN3C(C)CCCC3C)cnc12 (stereo not drawn)
233 to 236 | CN1C(=O)CC[C@]2(C)c3ccc(C=Cc4ccc5ccccc5n4)cc3CC[C@@H]12
88 to 89 | Cc1ccc(S(=O)(=O)N2CCC[C@H]2C(=O)N[C@@H](Cc2ccc(OCC(=O)NC(C)(C)C)cc2)C(=O)O)cc1
228 to 230 | CC(C)(C)OC(=O)N(Cc1ccccc1)c1ccc(O)cc1
101 to 102 | C=C1CC(COc2cccc3cccnc23)(c2ccccc2)OC1=O (stereo not drawn)
166 to 167 | O=C1NCc2ccc(OCCCCN3CCN(c4cccc(Cl)c4Cl)CC3)nc2N1
150 | CN(C)c1ccccc1CC(=O)N1C[C@@H]2C(=O)CCC(c3ccccc3)(c3ccccc3)[C@@H]2C1
240 | CCCC(=O)Nc1n[nH]c2cc(Cl)c(-c3ccc(CC)cc3)cc12
148 to 150 | COc1ccc2cc(C3CCN(CC(O)COc4ccccc4C=C4CCOC4=O)CC3)ccc2c1 (stereo not drawn)
133 to 141 | COC(=O)CCCc1cc2nc(Cl)ccc2n1S(=O)(=O)c1ccc2ncccc2c1
145 | Oc1cc(Cl)c(OCc2ccc(F)c(Oc3ccccc3)c2)c(Cl)c1
136 to 138 | CC(=O)NCC1CN(c2ccc(N3CCC(C(C#N)CO)CC3)c(F)c2)C(=O)O1 (stereo not drawn)
233 to 236 | CN(CCF)c1nc2cc(NC(=O)c3c(C(=O)N4CC(F)C4)cnn3C)ccn2n1
141 to 142 | CCC(=O)NCc1ccc2ccn(C3CCN(CCc4ccc(F)cc4)CC3)c2c1
92 to 95 | COc1cnc(CCCOc2cccc(CN3CCCC3)c2)[nH]c1=O
194 to 198 | COC(=O)c1ccc2c(C(C(=O)O)c3ccc4c(c3)OCO4)cn(C)c2c1 (stereo not drawn)
87 to 90 | CCCN1CCC(c2c[nH]c3ccc(NS(C)(=O)=O)cc23)CC1
96.7 to 97.5 | CC(C)=CCCC(C)=CCOc1ccc(C(=O)NCCSc2ccc(C(F)(F)F)cn2)cc1
123 to 131 | O=C1CCC(C(=O)OC(C(=O)c2ccccc2)c2ccccc2)N1 (stereo not drawn)
104 to 106 | CCOC(=O)/C=C(/c1ccc(OCC)cc1)c1cc(Cl)cc(Cl)c1
72 to 74 | Fc1ccc2[nH]cc(C3=CCC(N4CCC(Cc5ccccc5)CC4)CC3)c2c1 (stereo not drawn)
142 | COc1ccccc1CC(=O)N1C[C@H]2C(c3ccccc3OC)=CCC(c3ccccc3)(c3ccccc3)[C@H]2C1
128 to 130 | COc1cccc(N2CCN(Cc3ccccc3C(c3ccc(O)cc3)c3ccc(O)cc3)CC2)c1
127 to 134 | CC1Nc2ccccc2N2CCc3cccc1c32 (stereo not drawn)
170 to 172 | Cc1nc(-n2ccc(OCCC3CC3)cc2=O)sc1C(=O)NCc1cccnc1

Further lines, the compound ahead of its results:

Structure (SMILES) | melting point [°C]
COc1ccc(S(=O)(=O)N2C(=O)C(c3ccccc3OC)(N3Cc4ccccc4C[C@H]3C(=O)N(C)C)c3cc(Cl)c(Cl)cc32)c(OC)c1 (stereo partly drawn) | 155
NC(=O)c1cccc(OCCCl)c1 | 125 to 126
COc1cc(OC)nc(-n2cnc(N)n2)n1 | 219
O=Cc1c(-c2ccccc2Cl)ccc2c1OCO2 | 84 to 86
CC(C)Oc1cccc(N(C)C(=O)N(C)Cc2c(-c3ccccc3)c3cc(Cl)ccc3c(=O)n2C)c1 | 143 to 144
COc1ccc(-c2cc(=O)c3ccc(OCCCBr)cc3o2)cc1OC | 148 to 149
CC(C)(C)c1nc2cc(N3CCOCC3)c(N=C=S)cc2s1 | 141 to 143
O=C(NCCCCCCCCn1ccnc1)c1ccc(Cl)nc1 | 79 to 81
N#CN=C(Cc1ccc2c(c1)Nc1nccnc1S2)NCCCC(=O)O | 217 to 218
CNC(=O)Nc1cc(C(C)(C)COC)on1 | 65 to 67
CC(C)(C)c1ccc(S(=O)(=O)C[N+](=O)[O-])cc1 | 90 to 91
O=C1CCC(C(=O)O)c2cc(Cl)c(C3CCCCC3)cc21 (stereo not drawn) | 204 to 205
c1ccc(C(Cn2cncn2)c2ccccc2)cc1 | 107 to 108
CCCSc1nsnc1O | 84 to 85
CCNC(=S)C1=CC(CF)(CF)Oc2ccc(C(F)(F)F)cc21 | 65 to 67
COCCOc1ccc(CCCC2OCCO2)c(Oc2ncc(C(F)(F)F)cc2Cl)c1 | 92 to 92.5
C[N+]1([O-])CC(c2ccccn2)C(=O)c2cc(Cl)ccc21 (stereo not drawn) | 135 to 137
O=C1Nc2ccccc2Sc2ncccc21 | 260 to 261
Cc1c(Cc2ccccc2)oc2cc(O)c(O)cc12 | 95.5 to 98
CCCCN(C1CCCOc2c(C)cc(Cl)cc21)S(=O)(=O)CC (stereo not drawn) | 83 to 87
O=C(/C=C/c1ccc(OC(F)(F)F)cc1)/C=C/c1ccc(C(F)(F)F)cc1 | 97 to 99
CC(CCCC(C)(O)CO)C1CCC2C3CC=C4CC(O)CCC4(C)C3CCC12C (stereo not drawn) | 173 to 176

Structure (SMILES) | melting point [°C]
O=C(Nc1cccc2c1C(=O)c1c-2n[nH]c1-c1ccc(C(=O)NN2CCCC2)s1)NN1CCOCC1 | 213 to 215
COc1ccc(C(=O)Nc2cccnc2)cc1NC(=S)Nc1ccc(Cl)c(Cl)c1 | 179 to 180
Cc1ccc(CS(=O)(=O)c2nc3cscc3[nH]2)nc1 | 163
CC1CC=C(Nc2ccccc2)c2ncc(C(=O)O)c(=O)n21 (stereo not drawn) | 160 to 162
SC1=NC2(CO1)COC(S)=N2 | 200 to 202
CC(CC1CCCCC1)C(=O)COS(=O)(=O)c1ccccc1 (stereo not drawn) | 51 to 52
CC1(C)CCC(=O)Nc2ccc([N+](=O)[O-])cc21 | 208
O=C1CCC(c2ccc(OCCBr)cc2)CC1 | 91 to 92
Nc1ccc(Nc2ccc(S(=O)(=O)CCO)cc2[N+](=O)[O-])cc1S(=O)(=O)O | 204
O=S(=O)(Cc1ccccc1)On1nnc2ccccc21 | 65 to 67
COC(=O)CS(=O)(=O)Nc1ccc(F)c(C(F)(F)F)c1 | 111 to 112
O=S(=O)(CC(F)(F)F)c1nc2cc(F)ccc2[nH]1 | 160 to 162
O=C1C(=O)c2ccccc2C2=C1SCC1(CCC(O)CC1)O2 (stereo not drawn) | 166 to 168
O=C(C=Cc1c(Cl)cccc1Cl)c1ccccc1 | 83
CC(C)(C)OC(=O)N1CCNC(=O)C1Sc1ccccc1 (stereo not drawn) | 138 to 140
CC(C)(C)Oc1c(-c2ccc(S(C)(=O)=O)cc2)cnn(-c2cccc(Cl)c2)c1=O | 232 to 235
CCOC(=O)c1ncn2c1[C@@H]1CCCN1C(=O)c1ccccc1-2 | 196 to 197
O=[N+]([O-])c1cnc(Sc2nccnc2Cl)s1 | 139 to 141
Cc1nccc2[nH]c(=O)c(C(=O)O)cc12 | 255 to 257
BrC(Br)Cc1cccc2[nH]c(-c3ccccc3)cc12 | 106
O=C(O)CCCCCOc1ccc2sc(-c3ccccn3)nc(=O)c2c1 | 205 to 206
COC1C(O)C(CO)OC1n1cc(C(F)(F)F)c(=O)[nH]c1=O (stereo not drawn) | 192 to 194
